Measured values from US9611453B2, “Micromechanical devices for control of cell-cell interaction, and methods of use thereof” (The Regents of the University of California, priority 2007, dated 2017).

Key:
3T3 fibroblasts = test: Viability assay of hepatocyte / 3T3 fibroblast co-culture after drug exposure, populations separated on micromechanical substrates; format: cell-based, murine
Source text: FIG. 13 depicts population-specific readout or selective interrogation. Hepatocytes and 3T3 fibroblasts are co-cultured to maintain hepatocyte differentiation. In (A) the drug Pyrilamine is introduced while the cells are in co-culture. By using the micromechanical substrates, the two cell populations are separated prior to viability assay, allowing the viability of each cell type to be assessed independently. […] In (B) the effect of the drug Methapyrilamine is compared when the cells are in co-culture or when the 3T3 are alone.
In another embodiment, in addition to the selective stimulation described above, one can separate a subpopulation of cells from a culture in order to assay those cells specifically; this is known as selective interrogation. One example of selective interrogation is shown in FIG. 11, where SEC cells are separated out from a culture of many cell types, and a Western Blot is performed on the purified SEC population. Another example is in FIG. 15, where hepatocytes and 3T3 fibroblasts are separated before viability assays are performed on each population.

LSEC = details: previously demonstrated (Fujimoto, H. et al. 2006); cited from earlier work
[1] = test system: liver sinusoidal endothelial cells (LSEC); test: SE-1 expression of cultured LSEC (immunohistochemistry and Western blotting); format: cell-based; details: primary rat LSEC cultured in the presence of OV, day 3
Method: For example, immunohistochemistry and Western blotting were used to characterize expression of the specific EC markers RECA, SE-1, PECAM and AcLDL in isolated primary rat LSECs were cultured under the following conditions: a) on the different ECM proteins including, Collagen-I, Fibronectin, Laminin, and Collagen-IV; b) with various combinations of supportive cells, using the micromechanical reconfigurable culture method described herein to enable tracking of individual cell types, separation into pure populations for analysis, and deconvolution of contact-mediated versus soluble signals; and c) in the presence of the tyrosine phosphatase inhibitor, orthovanadate (OV).
In addition, the co-culture of LSEC with hepatocytes or fibroblast-stabilized hepatocytes induced LSEC proliferation as well as the activation of the transcription factor STAT-1.

For `CN(C)CCN(Cc1cccs1)c1ccccn1` [Methapyrilamine], the “sensitivity of 3T3 to the toxic effects, co-culture versus 3T3 alone” value (3T3 fibroblasts; 3T3 in co-culture with hepatocytes or alone, FIG. 13B) was “more sensitive to the toxic effects of the drug when alone”.

In the case of `[O]=[V]([O-])([O-])[O-]` [OV, orthovanadate], the LSEC apoptosis (LSEC) is listed as “inhibited LSEC apoptosis” and the SE-1 expression [1] is listed as “strongly maintaining”.

With `COc1ccc(CN(CCN(C)C)c2ccccn2)cc1` [Pyrilamine] the “sensitivity to the toxic effects (viability), 3T3 versus hepatocytes” value (3T3 fibroblasts; drug introduced while hepatocytes and 3T3 are in co-culture, populations separated prior to viability assay, FIG. 13A) was 3T3 are shown to be more sensitive.
